Drawing on BindingDB's records for doi:10.1002/cbic.201300770 (Northeast Ohio Medial University, 2014), this text covers IC50 for 2 molecules.

Assay [1] addresses T1, Amine oxidase [flavin-containing] A (Homo sapiens, UniProt P21397).
T1 sequence (P21397 whole entry): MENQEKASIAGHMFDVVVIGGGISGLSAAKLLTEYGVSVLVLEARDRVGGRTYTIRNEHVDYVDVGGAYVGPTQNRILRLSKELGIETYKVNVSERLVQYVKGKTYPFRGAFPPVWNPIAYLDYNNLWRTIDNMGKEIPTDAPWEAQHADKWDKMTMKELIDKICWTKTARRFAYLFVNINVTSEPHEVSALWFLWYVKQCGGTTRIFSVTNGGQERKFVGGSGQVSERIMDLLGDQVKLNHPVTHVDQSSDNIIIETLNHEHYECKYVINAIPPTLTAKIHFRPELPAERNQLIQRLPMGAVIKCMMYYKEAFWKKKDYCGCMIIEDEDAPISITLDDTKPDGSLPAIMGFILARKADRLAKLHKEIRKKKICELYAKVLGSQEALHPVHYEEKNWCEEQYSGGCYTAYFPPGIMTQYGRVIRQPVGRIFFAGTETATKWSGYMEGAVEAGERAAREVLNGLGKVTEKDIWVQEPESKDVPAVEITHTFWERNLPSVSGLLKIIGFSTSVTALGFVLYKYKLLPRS
As to the kind of experiment: MAO Enzyme Assays. The note with it: pH 7.4. The method, then: (§1) The buffer system used was a 0.1 M phosphate buffer (pH 7.4). The assays were carried out in a fluorescent 96-well plate. The final concentrations of MAO-A and MAO-B were 6 µg/mL and 15 µg/mL, respectively. The final concentration of kynuramine was 40 µM for MAO-A or 20 µM for MAO-B. The compounds (10 mM stock solution in DMSO; less than 2% (v/v) final concentration of DMSO in the assay) were incubated with MAO and the substrate for 20 min, and quenched with the addition of 2 N NaOH.

Assay [2] addresses T2, Amine oxidase [flavin-containing] B (Homo sapiens, UniProt P27338).
T2 sequence (P27338 whole entry): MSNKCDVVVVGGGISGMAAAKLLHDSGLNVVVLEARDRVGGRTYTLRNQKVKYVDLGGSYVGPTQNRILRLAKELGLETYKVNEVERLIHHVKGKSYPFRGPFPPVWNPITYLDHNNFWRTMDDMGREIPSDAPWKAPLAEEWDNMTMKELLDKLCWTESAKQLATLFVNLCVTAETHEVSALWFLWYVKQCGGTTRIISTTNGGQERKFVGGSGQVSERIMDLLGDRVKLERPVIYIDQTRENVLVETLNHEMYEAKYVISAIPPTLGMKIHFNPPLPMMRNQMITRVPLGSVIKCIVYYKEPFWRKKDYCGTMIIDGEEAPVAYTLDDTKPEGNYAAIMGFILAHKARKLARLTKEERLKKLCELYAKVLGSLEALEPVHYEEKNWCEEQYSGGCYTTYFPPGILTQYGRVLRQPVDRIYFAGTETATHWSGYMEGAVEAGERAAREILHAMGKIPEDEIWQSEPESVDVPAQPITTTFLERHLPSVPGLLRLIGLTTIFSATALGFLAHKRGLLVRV
As to the kind of experiment: MAO Enzyme Assays. The conditions noted are these: pH 7.4. As to the method:
as §1

As for `CN(C)c1ccc(/N=N/c2ccccc2)cc1` [(E)-N,N-dimethyl-4-(phenyldiazenyl)aniline], the values for the IC50 in assay [1] and in assay [2] were 4.64 µM and 0.0146 µM, respectively.
On the same counts, the results for `c1ccc(/N=N/c2ccccc2)cc1` [(E)-1,2-diphenyldiazene] are 22.9 µM and 2.66 µM.
